# Reference: publication PMC6008465 (British Journal of Cancer, 2018)
# Key:
# [1] = tested on: patients with advanced solid tumours, including melanoma; assay: Phase 1 study overall (Parts A and B): safety; assay type: in vivo, human
# Protocol: (§1) Safety was assessed by monitoring AEs, serious AEs (SAEs), laboratory parameters, vital signs, 12-lead electrocardiograms (ECGs), Eastern Cooperative Oncology Group performance status, and symptom-directed physical and neurologic examination findings. AEs were graded by investigators based on the National Cancer Institute Common Terminology Criteria for Adverse Events, version 3.[16]
# [2] = tested on: patients with advanced BRAF-mutated or wild-type (WT) melanoma; assay: Phase 1 Part B (expansion): safety, MTD confirmation; assay type: in vivo, human
# Protocol: In Part B, an adaptive study design was planned to define an optimal dosing schedule. Two schedules were evaluated: Schedule I (once-weekly dosing at the MTD, 320 mg/m^2, on Days 1, 8, and 15 of a 28-day cycle) and Schedule II (twice-weekly dosing, on Days 1, 4, 8, 11, 15, and 18 of a 28-day cycle, starting at 160 mg/m^2, based on the Schedule I MTD). One dose escalation (from 160 mg/m^2 to 320 mg/m^2) was allowed in Schedule II for MTD determination. […] Toxicity was managed as before. Up to 30 patients with BRAF-mutated melanoma and up to 29 patients with BRAF-WT melanoma were to be enrolled in Schedule I. Up to 30 patients were to be enrolled into Schedule II once the MTD was confirmed. Based on the efficacy observed in Part A, Schedule II was initiated only in patients with BRAF-mutated melanoma. Patients could continue to receive E6201 as long as there was evidence of clinical benefit (extension phase).
# as §1
# [3] = preclinical; cited from earlier work
# [4] = Part B, BRAF-WT 320 mg/m^2 once weekly (n=7)
# [5] = Part B, BRAF-mutated 160 mg/m^2 twice weekly (n=3)
# [6] = Part B, BRAF-mutated 320 mg/m^2 once weekly (n=20)
# [7] = Part B, BRAF-mutated 320 mg/m^2 once-weekly group
smiles,measurement,setting,value
"CCNc1cc(O)c2c(c1)/C=C/C[C@H](O)[C@H](O)C(=O)/C=C\[C@@H](C)[C@H](C)OC2=O [E6201, (3S,4R,5Z,8S,9S,11E)-14-(ethylamino)-8,9,16-trihydroxy-3,4-dimethyl-3,4,9,19-tetrahydro-1H-2-benzoxacyclotetradecine-1,7 (8H)-dione]",Patients who died during the study,[1]; Parts A and B,Four
same,AEs of cardiomyopathy,[1]; during the study,no reported AEs of cardiomyopathy
same,New skin cancers,[1]; during the study,No new skin cancers were reported
same,Patients who discontinued treatment due to SAEs,[2]; Part B,4 patients
same,"Fatigue TEAE, patients","[2]; Part B overall, 11 patients",36.7%
same,"Grade 3/4 abdominal pain, patients","[2]; Part B, 2 patients",6.7%
same,"Grade 3/4 dyspnea, patients","[2]; Part B, 2 patients",6.7%
same,"Treatment-emergent SAEs other than death, patients","[2]; Part B, 14 patients",46.7%
same,"Grade 3/4 TEAEs, patients","[2]; Part B, 15 patients",50.0%
same,Patients with ≥1 TEAE assessed as treatment-related,"[2]; Part B, 19 patients",63.3%
same,"QT prolongation reported as an AE (grade 3, possibly related, not DLT), patients","[2]; Part B, 60-min infusion, 1 patient",3.3%
same,"Anemia TEAE incidence, All grades",[2]; [4],3 (42.9) n (%)
same,"Anemia TEAE incidence, G≥3",[2]; [4],1 (14.3) n (%)
same,"Constipation TEAE incidence, All grades",[2]; [4],2 (28.6) n (%)
same,"Constipation TEAE incidence, G≥3",[2]; [4],0 n (%)
same,"Cough TEAE incidence, All grades",[2]; [4],1 (14.3) n (%)
same,"Cough TEAE incidence, G≥3",[2]; [4],0 n (%)
same,"Decreased appetite TEAE incidence, All grades",[2]; [4],2 (28.6) n (%)
same,"Decreased appetite TEAE incidence, G≥3",[2]; [4],0 n (%)
same,"Fatigue TEAE incidence, All grades",[2]; [4],4 (57.1) n (%)
same,"Fatigue TEAE incidence, G≥3",[2]; [4],0 n (%)
same,"Muscular weakness TEAE incidence, All grades",[2]; [4],2 (28.6) n (%)
same,"Muscular weakness TEAE incidence, G≥3",[2]; [4],0 n (%)
same,"Nausea TEAE incidence, All grades",[2]; [4],2 (28.6) n (%)
same,"Nausea TEAE incidence, G≥3",[2]; [4],0 n (%)
same,"Pain in extremity TEAE incidence, All grades",[2]; [4],2 (28.6) n (%)
same,"Pain in extremity TEAE incidence, G≥3",[2]; [4],1 (14.3) n (%)
same,"Peripheral edema TEAE incidence, All grades",[2]; [4],2 (28.6) n (%)
same,"Peripheral edema TEAE incidence, G≥3",[2]; [4],1 (14.3) n (%)
same,"Pyrexia TEAE incidence, All grades",[2]; [4],1 (14.3) n (%)
same,"Pyrexia TEAE incidence, G≥3",[2]; [4],0 n (%)
same,"Vomiting TEAE incidence, All grades",[2]; [4],1 (14.3) n (%)
same,"Vomiting TEAE incidence, G≥3",[2]; [4],0 n (%)
same,"Deaths (multisystem organ failure, not considered related)","[2]; Part B, BRAF-mutated 160 mg/m^2 once-weekly group (so in the source)",One
same,"Anemia TEAE incidence, All grades",[2]; [5],1 (33.3) n (%)
same,"Anemia TEAE incidence, G≥3",[2]; [5],0 n (%)
same,"Constipation TEAE incidence, All grades",[2]; [5],0 n (%)
same,"Constipation TEAE incidence, G≥3",[2]; [5],0 n (%)
same,"Cough TEAE incidence, All grades",[2]; [5],1 (33.3) n (%)
same,"Cough TEAE incidence, G≥3",[2]; [5],0 n (%)
same,"Decreased appetite TEAE incidence, All grades",[2]; [5],0 n (%)
same,"Decreased appetite TEAE incidence, G≥3",[2]; [5],0 n (%)
same,"Fatigue TEAE incidence, All grades",[2]; [5],0 n (%)
same,"Fatigue TEAE incidence, G≥3",[2]; [5],0 n (%)
same,"Muscular weakness TEAE incidence, All grades",[2]; [5],1 (33.3) n (%)
same,"Muscular weakness TEAE incidence, G≥3",[2]; [5],0 n (%)
same,"Nausea TEAE incidence, All grades",[2]; [5],1 (33.3) n (%)
same,"Nausea TEAE incidence, G≥3",[2]; [5],1 (33.3) n (%)
same,"Pain in extremity TEAE incidence, All grades",[2]; [5],1 (33.3) n (%)
same,"Pain in extremity TEAE incidence, G≥3",[2]; [5],0 n (%)
same,"Peripheral edema TEAE incidence, All grades",[2]; [5],1 (33.3) n (%)
same,"Peripheral edema TEAE incidence, G≥3",[2]; [5],0 n (%)
same,"Pyrexia TEAE incidence, All grades",[2]; [5],0 n (%)
same,"Pyrexia TEAE incidence, G≥3",[2]; [5],0 n (%)
same,"Vomiting TEAE incidence, All grades",[2]; [5],1 (33.3) n (%)
same,"Vomiting TEAE incidence, G≥3",[2]; [5],1 (33.3) n (%)
same,"Anemia TEAE incidence, All grades",[2]; [6],1 (5.0) n (%)
same,"Anemia TEAE incidence, G≥3",[2]; [6],0 n (%)
same,"Constipation TEAE incidence, All grades",[2]; [6],3 (15.0) n (%)
same,"Constipation TEAE incidence, G≥3",[2]; [6],0 n (%)
same,"Cough TEAE incidence, All grades",[2]; [6],3 (15.0) n (%)
same,"Cough TEAE incidence, G≥3",[2]; [6],0 n (%)
same,"Decreased appetite TEAE incidence, All grades",[2]; [6],3 (15.0) n (%)
same,"Decreased appetite TEAE incidence, G≥3",[2]; [6],0 n (%)
same,"Fatigue TEAE incidence, All grades",[2]; [6],7 (35.0) n (%)
same,"Fatigue TEAE incidence, G≥3",[2]; [6],0 n (%)
same,"Muscular weakness TEAE incidence, All grades",[2]; [6],2 (10.0) n (%)
same,"Muscular weakness TEAE incidence, G≥3",[2]; [6],0 n (%)
same,"Nausea TEAE incidence, All grades",[2]; [6],7 (35.0) n (%)
same,"Nausea TEAE incidence, G≥3",[2]; [6],0 n (%)
same,"Pain in extremity TEAE incidence, All grades",[2]; [6],2 (10.0) n (%)
same,"Pain in extremity TEAE incidence, G≥3",[2]; [6],0 n (%)
same,"Peripheral edema TEAE incidence, All grades",[2]; [6],2 (10.0) n (%)
same,"Peripheral edema TEAE incidence, G≥3",[2]; [6],0 n (%)
same,"Pyrexia TEAE incidence, All grades",[2]; [6],4 (20.0) n (%)
same,"Pyrexia TEAE incidence, G≥3",[2]; [6],0 n (%)
same,"Vomiting TEAE incidence, All grades",[2]; [6],5 (25.0) n (%)
same,"Vomiting TEAE incidence, G≥3",[2]; [6],0 n (%)
same,Patients with grade 1 photophobia (possibly related),"[2]; Part B, BRAF-mutated 320 mg/m^2 once-weekly",one
same,Deaths (not considered related to E6201),[2]; [7],2 patients
same,Patients with grade 4 pericardial effusion (unrelated),[2]; [7],1 patient
same,"Anemia TEAE incidence, All grades","[2]; Part B, Total (N=30)",5 (16.7) n (%)
same,"Anemia TEAE incidence, G≥3","[2]; Part B, Total (N=30)",1 (3.3) n (%)
same,"Constipation TEAE incidence, All grades","[2]; Part B, Total (N=30)",5 (16.7) n (%)
same,"Constipation TEAE incidence, G≥3","[2]; Part B, Total (N=30)",0 n (%)
same,"Cough TEAE incidence, All grades","[2]; Part B, Total (N=30)",5 (16.7) n (%)
same,"Cough TEAE incidence, G≥3","[2]; Part B, Total (N=30)",0 n (%)
same,"Decreased appetite TEAE incidence, All grades","[2]; Part B, Total (N=30)",5 (16.7) n (%)
same,"Decreased appetite TEAE incidence, G≥3","[2]; Part B, Total (N=30)",0 n (%)
same,"Fatigue TEAE incidence, All grades","[2]; Part B, Total (N=30)",11 (36.7) n (%)
same,"Fatigue TEAE incidence, G≥3","[2]; Part B, Total (N=30)",0 n (%)
same,"Muscular weakness TEAE incidence, All grades","[2]; Part B, Total (N=30)",5 (16.7) n (%)
same,"Muscular weakness TEAE incidence, G≥3","[2]; Part B, Total (N=30)",0 n (%)
same,"Nausea TEAE incidence, All grades","[2]; Part B, Total (N=30)",10 (33.3) n (%)
same,"Nausea TEAE incidence, G≥3","[2]; Part B, Total (N=30)",1 (3.3) n (%)
same,"Pain in extremity TEAE incidence, All grades","[2]; Part B, Total (N=30)",5 (16.7) n (%)
same,"Pain in extremity TEAE incidence, G≥3","[2]; Part B, Total (N=30)",1 (3.3) n (%)
same,"Peripheral edema TEAE incidence, All grades","[2]; Part B, Total (N=30)",5 (16.7) n (%)
same,"Peripheral edema TEAE incidence, G≥3","[2]; Part B, Total (N=30)",1 (3.3) n (%)
same,"Pyrexia TEAE incidence, All grades","[2]; Part B, Total (N=30)",5 (16.7) n (%)
same,"Pyrexia TEAE incidence, G≥3","[2]; Part B, Total (N=30)",0 n (%)
same,"Vomiting TEAE incidence, All grades","[2]; Part B, Total (N=30)",7 (23.3) n (%)
same,"Vomiting TEAE incidence, G≥3","[2]; Part B, Total (N=30)",1 (3.3) n (%)
same,"QTcF prolongation to 450–500 ms, patients","[2]; Part B, four patients across dose groups",13.3%
same,"QTcF increase from baseline 30–60 ms, patients","[2]; Part B, seven patients",23.3%
same,"QTcF increase from baseline ≥60 ms, patients","[2]; Part B, two patients, BRAF-mutated 320 mg/m^2 once-weekly group",6.7%
same,"Maximum-tolerated dose (MTD), confirmed","[2]; Part B, 60-min infusion once-weekly for 3 weeks of a 28-day cycle",320 mg/m^2
same,t1/2 of E6201,[3],3 to 6 h
